Experiment: xn = mol fraction of the nth substance listed
Conditions: for viscosity / mass density: 91.2 kPa, Liquid; for viscosity: Concentric cylinders viscometry; for mass density: Vibrating tube method; for surface tension liquid-gas: Ring tensiometer

C[C@H](O)C(=O)O [(S)-2-hydroxypropanoic acid] + O=C[C@H](O)[C@@H](O)[C@H](O)[C@H](O)CO
x1 = 0.833
Conditions	mass density [kg/m3]	surface tension liquid-gas [mN/m]	viscosity [mPa·s]
293 K	1280	–	335
298 K	1270	37.42	–
303 K	1270	–	161
308 K	1270	–	–
313 K	1260	–	79
318 K	1260	–	–
323 K	1250	–	34
333 K	–	–	18
343 K	–	–	16
353 K	–	–	13

C[C@H](O)C(=O)O [(S)-2-hydroxypropanoic acid] + C[N+](C)(C)CCO.[Cl-]
x2 = 0.5
Conditions	mass density [kg/m3]	surface tension liquid-gas [mN/m]	viscosity [mPa·s]
293 K	1150	–	309
298 K	1150	42.87	–
303 K	1150	–	151
308 K	1140	–	–
313 K	1140	–	101
318 K	1140	–	–
323 K	1130	–	59
333 K	–	–	35
343 K	–	–	34
353 K	–	–	25

Source: the NIST ThermoML archive (doi:10.1016/j.fluid.2019.01.025)
